Results reported in article PMC11314561, “Design and Synthesis of Novel Aminoindazole-pyrrolo[2,3-b]pyridine Inhibitors of IKKα That Selectively Perturb Cellular Non-Canonical NF-κB Signalling” (Molecules, 2024).

How the values were obtained:
Experiment in all cases: kinase panel
Type in all cases: biochemical
NEK7(h) = NEK7(h) (Homo sapiens, UniProt Q8TDX7)
Summary of the method: (§1)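 Percentage inhibition was recorded for each compound against a broad kinase panel of 231 enzymes. Because of its close structural resemblance to another analogue, one compound was screened against 98 chosen kinases.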

BrSK1(h) = BrSK1(h) (Homo sapiens, UniProt Q8TDC3)
Summary of the method: as §1

Snk(h) = Snk(h) (Homo sapiens, UniProt Q9NYY3)
Summary of the method: as §1

NEK6(h) = NEK6(h) (Homo sapiens, UniProt Q9HC98)
Chain of NEK6(h) (Q9HC98 whole entry): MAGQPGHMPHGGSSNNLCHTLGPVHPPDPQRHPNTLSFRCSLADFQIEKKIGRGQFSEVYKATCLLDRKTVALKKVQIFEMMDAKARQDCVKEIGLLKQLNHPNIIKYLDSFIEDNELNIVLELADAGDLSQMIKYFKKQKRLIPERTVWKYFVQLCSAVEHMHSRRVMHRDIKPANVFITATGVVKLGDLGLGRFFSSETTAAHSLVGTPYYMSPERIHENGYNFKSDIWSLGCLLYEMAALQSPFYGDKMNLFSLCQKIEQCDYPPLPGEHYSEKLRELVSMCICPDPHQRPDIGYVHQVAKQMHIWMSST
Summary of the method: as §1

DAPK2(h) = DAPK2(h) (Homo sapiens, UniProt Q9UIK4)
Chain of DAPK2(h) (Q9UIK4 whole entry): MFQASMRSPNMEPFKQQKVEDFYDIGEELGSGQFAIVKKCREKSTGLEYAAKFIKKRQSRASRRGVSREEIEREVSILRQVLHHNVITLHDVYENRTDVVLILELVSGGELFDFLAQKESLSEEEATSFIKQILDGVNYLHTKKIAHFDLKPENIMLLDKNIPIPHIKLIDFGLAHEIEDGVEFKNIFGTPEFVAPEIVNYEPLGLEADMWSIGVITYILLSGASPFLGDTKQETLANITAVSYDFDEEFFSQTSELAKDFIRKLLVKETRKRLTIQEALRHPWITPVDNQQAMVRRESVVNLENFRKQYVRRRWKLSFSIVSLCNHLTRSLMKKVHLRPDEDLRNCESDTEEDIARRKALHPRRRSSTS
Summary of the method: as §1

PKCδ(h) = PKCδ(h) (Homo sapiens, UniProt Q05655)
Summary of the method: as §1

VRK2(h) = VRK2(h) (Homo sapiens, UniProt Q86Y07)
Chain of VRK2(h) (Q86Y07 whole entry): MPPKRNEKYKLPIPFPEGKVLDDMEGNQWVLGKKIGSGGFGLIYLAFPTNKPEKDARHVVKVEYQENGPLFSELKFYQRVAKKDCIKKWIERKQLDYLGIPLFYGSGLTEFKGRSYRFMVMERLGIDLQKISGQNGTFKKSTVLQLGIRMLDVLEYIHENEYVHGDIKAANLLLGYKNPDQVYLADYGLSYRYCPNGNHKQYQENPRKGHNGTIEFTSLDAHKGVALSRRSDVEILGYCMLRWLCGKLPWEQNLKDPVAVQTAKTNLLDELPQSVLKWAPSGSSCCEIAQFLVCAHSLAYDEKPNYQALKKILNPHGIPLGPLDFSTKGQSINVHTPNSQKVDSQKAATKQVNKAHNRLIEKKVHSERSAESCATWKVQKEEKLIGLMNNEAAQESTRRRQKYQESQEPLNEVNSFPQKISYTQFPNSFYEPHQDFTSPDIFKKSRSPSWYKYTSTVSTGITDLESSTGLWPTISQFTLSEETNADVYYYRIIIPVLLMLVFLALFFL
Summary of the method: as §1

Lck(h) activated = Lck(h) activated (Homo sapiens, UniProt P06239)
Summary of the method: as §1

Hck(h) activated = Hck(h) activated (Homo sapiens, UniProt P08631)
Summary of the method: as §1

PKCζ(h) = PKCζ(h) (Homo sapiens, UniProt Q05513)
Chain of PKCζ(h) (Q05513 whole entry): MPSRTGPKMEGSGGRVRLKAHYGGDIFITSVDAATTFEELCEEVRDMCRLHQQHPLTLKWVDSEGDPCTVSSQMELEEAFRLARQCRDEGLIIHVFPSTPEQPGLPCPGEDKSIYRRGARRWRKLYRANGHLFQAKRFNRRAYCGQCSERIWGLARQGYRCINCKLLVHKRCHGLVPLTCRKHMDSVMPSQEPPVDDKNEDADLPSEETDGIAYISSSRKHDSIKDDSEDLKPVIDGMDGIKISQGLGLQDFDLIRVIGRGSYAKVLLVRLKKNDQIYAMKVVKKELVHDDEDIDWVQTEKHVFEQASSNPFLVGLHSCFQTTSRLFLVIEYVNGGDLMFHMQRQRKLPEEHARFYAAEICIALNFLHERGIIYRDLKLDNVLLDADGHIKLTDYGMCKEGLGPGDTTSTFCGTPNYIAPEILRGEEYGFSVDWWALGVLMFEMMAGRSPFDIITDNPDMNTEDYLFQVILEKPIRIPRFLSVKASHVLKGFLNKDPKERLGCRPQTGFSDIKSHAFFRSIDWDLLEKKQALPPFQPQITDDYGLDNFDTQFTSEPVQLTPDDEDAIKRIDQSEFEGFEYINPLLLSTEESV
Summary of the method: as §1

PDGFRα(h) = PDGFRα(h) (Homo sapiens, UniProt P16234)
Summary of the method: as §1

EphB1(h) = EphB1(h) (Homo sapiens, UniProt P54762)
Summary of the method: as §1

PKG1α(h) = PKG1α(h) (Homo sapiens, UniProt Q13976)
Summary of the method: as §1

EphA3(h) = EphA3(h) (Homo sapiens, UniProt P29320)
Summary of the method: as §1

MST1(h) = MST1(h) (Homo sapiens, UniProt Q13043)
Summary of the method: as §1

MLK1(h) = MLK1(h) (Homo sapiens, UniProt P80192)
Chain of MLK1(h) (P80192 whole entry): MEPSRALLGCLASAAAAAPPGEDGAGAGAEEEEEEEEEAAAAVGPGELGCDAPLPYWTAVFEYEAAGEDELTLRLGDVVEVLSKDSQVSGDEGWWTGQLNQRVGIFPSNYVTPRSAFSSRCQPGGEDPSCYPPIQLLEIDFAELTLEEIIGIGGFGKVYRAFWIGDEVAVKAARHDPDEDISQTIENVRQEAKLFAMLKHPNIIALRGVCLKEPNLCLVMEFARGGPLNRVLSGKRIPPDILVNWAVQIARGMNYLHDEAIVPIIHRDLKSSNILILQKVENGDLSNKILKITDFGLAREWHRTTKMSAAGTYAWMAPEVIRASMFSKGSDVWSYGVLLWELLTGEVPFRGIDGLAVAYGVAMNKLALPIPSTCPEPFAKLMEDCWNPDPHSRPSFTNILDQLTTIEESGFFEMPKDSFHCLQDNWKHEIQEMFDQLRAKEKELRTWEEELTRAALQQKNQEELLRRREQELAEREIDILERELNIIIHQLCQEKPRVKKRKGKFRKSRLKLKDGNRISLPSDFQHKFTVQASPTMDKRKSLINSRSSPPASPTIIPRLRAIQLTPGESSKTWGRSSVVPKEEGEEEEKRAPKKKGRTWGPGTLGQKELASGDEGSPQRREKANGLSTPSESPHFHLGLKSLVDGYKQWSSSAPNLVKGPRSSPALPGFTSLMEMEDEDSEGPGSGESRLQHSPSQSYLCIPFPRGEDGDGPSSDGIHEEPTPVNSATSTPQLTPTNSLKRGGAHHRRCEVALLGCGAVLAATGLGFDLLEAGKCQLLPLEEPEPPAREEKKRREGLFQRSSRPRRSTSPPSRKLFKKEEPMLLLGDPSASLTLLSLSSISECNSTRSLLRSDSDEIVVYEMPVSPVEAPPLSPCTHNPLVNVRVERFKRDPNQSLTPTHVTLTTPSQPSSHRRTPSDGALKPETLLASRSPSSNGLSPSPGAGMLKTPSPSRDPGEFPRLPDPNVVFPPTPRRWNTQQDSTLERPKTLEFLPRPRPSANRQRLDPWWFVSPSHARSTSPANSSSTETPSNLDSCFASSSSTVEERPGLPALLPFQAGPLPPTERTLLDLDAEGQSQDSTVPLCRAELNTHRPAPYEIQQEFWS
Summary of the method: as §1

TAO2(h) = TAO2(h) (Homo sapiens, UniProt Q9UL54)
Summary of the method: as §1

LKB1(h) = LKB1(h) (Homo sapiens, UniProt Q15831)
Summary of the method: as §1

Plk3(h) = Plk3(h) (Homo sapiens, UniProt Q9H4B4)
Summary of the method: as §1

Hck(h) = Hck(h) (Homo sapiens, UniProt P08631)
Summary of the method: as §1

eEF-2K(h) = eEF-2K(h) (Homo sapiens, UniProt O00418)
Chain of eEF-2K(h) (O00418 whole entry): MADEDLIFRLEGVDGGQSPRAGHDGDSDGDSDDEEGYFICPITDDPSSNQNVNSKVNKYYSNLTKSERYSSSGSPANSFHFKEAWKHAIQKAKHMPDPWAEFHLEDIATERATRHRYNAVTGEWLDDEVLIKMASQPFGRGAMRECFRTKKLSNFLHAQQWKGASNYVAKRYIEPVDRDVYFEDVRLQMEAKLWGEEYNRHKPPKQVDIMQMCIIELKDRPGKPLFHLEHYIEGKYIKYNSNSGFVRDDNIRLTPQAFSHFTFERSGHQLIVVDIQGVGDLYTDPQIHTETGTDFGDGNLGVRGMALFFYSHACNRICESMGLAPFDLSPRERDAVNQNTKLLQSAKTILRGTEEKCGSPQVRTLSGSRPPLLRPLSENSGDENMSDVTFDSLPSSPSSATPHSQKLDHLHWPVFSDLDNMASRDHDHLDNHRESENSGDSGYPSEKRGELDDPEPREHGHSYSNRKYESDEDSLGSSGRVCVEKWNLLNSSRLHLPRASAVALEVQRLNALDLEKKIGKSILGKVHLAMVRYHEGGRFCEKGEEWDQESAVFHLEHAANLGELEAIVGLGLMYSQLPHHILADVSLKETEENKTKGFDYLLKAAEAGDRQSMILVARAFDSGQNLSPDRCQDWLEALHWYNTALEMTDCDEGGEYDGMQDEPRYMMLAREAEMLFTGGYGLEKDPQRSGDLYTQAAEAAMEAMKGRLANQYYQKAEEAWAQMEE
Summary of the method: as §1

EphA5(h) = EphA5(h) (Homo sapiens, UniProt P54756)
Summary of the method: as §1

NLK(h) = NLK(h) (Homo sapiens, UniProt Q9UBE8)
Chain of NLK(h) (Q9UBE8 whole entry): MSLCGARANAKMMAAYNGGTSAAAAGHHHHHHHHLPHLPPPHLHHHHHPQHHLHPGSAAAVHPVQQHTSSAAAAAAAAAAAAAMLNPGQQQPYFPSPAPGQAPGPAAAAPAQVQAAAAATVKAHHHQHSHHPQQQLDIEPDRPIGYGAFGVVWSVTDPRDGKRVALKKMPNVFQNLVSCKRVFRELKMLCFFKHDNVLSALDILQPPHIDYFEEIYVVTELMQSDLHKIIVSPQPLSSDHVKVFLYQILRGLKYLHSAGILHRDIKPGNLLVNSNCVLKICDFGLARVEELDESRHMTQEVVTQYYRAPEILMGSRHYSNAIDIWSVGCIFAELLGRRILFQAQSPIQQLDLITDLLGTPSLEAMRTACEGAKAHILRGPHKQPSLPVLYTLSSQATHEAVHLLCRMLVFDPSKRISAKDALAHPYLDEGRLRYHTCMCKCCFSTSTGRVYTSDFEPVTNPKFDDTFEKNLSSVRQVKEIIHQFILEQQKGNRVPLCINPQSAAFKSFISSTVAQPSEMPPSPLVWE
Summary of the method: as §1

STK33(h) = STK33(h) (Homo sapiens, UniProt Q9BYT3)
Summary of the method: as §1

Fyn(h) = Fyn(h) (Homo sapiens, UniProt P06241)
Summary of the method: as §1

SGK3(h) = SGK3(h) (Homo sapiens, UniProt Q96BR1)
Summary of the method: as §1

MSSK1(h) = MSSK1(h) (Homo sapiens, UniProt Q9UPE1)
Summary of the method: as §1

SRPK1(h) = SRPK1(h) (Homo sapiens, UniProt Q96SB4)
Summary of the method: as §1

MAPKAP-K3(h) = MAPKAP-K3(h) (Homo sapiens, UniProt Q16644)
Summary of the method: as §1

PASK(h) = PASK(h) (Homo sapiens, UniProt Q96RG2)
Summary of the method: as §1

FGFR2(h) = FGFR2(h) (Homo sapiens, UniProt P21802)
Summary of the method: as §1

ASK1(h) = ASK1(h) (Homo sapiens, UniProt Q99683)
Summary of the method: as §1

LOK(h) = LOK(h) (Homo sapiens, UniProt O94804)
Summary of the method: as §1

RIPK2(h) = RIPK2(h) (Homo sapiens, UniProt O43353)
Summary of the method: as §1

SIK(h) = SIK(h) (Homo sapiens, UniProt P57059)
Chain of SIK(h) (P57059 whole entry): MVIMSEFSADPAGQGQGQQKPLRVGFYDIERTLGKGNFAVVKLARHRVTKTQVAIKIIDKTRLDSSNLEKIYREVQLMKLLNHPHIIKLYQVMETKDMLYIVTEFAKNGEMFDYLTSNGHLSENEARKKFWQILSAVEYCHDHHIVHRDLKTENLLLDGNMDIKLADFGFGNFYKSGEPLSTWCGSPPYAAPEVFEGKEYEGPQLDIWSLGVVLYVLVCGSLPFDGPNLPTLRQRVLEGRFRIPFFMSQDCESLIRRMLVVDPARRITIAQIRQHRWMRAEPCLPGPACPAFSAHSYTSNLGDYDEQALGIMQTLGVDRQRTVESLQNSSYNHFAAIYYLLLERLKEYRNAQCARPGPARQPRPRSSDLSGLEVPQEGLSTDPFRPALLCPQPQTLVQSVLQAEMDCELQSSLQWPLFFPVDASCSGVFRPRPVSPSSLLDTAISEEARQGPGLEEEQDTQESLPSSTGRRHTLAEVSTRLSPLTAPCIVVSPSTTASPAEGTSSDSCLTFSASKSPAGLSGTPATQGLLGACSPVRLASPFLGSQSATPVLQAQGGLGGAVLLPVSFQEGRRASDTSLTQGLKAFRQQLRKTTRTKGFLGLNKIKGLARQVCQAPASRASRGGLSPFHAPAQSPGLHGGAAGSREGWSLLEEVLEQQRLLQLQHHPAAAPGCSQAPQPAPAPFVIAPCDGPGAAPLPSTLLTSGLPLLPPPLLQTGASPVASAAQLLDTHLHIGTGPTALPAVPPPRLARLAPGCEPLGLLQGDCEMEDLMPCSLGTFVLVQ
Summary of the method: as §1

Ron(h) = Ron(h) (Homo sapiens, UniProt Q04912)
Summary of the method: as §1

IRR(h) = IRR(h) (Homo sapiens, UniProt P14616)
Summary of the method: as §1

MELK(h) = MELK(h) (Homo sapiens, UniProt Q14680)
Summary of the method: as §1

ALK4(h) = ALK4(h) (Homo sapiens, UniProt P36896)
Summary of the method: as §1

FGFR4(h) = FGFR4(h) (Homo sapiens, UniProt P22455)
Summary of the method: as §1

PKBβ(h) = PKBβ(h) (Homo sapiens, UniProt P31751)
Summary of the method: as §1

Pim-2(h) = Pim-2(h) (Homo sapiens, UniProt Q9P1W9)
Summary of the method: as §1

Structure (SMILES): Nc1n[nH]c2ccc(-c3ccnc4[nH]c(-c5ccccc5)cc34)cc12 [Compound 4]
- inhibition at 1 µM (NEK7(h)): -2%
- inhibition at 1 µM (BrSK1(h)): 45%
- inhibition at 1 µM (Snk(h)): 1%
- inhibition at 1 µM (NEK6(h)): 6%
- inhibition at 1 µM (DAPK2(h)): 2%
- inhibition at 1 µM (PKCδ(h)): 16%
- inhibition at 1 µM (VRK2(h)): 0%
- inhibition at 1 µM (Lck(h) activated): 44%
- inhibition at 1 µM (Hck(h) activated): 38%
- inhibition at 1 µM (PKCζ(h)): -1%
- inhibition at 1 µM (PDGFRα(h)): 8%
- inhibition at 1 µM (EphB1(h)): 63%
- inhibition at 1 µM (PKG1α(h)): 29%
- inhibition at 1 µM (EphA3(h)): 19%
- inhibition at 1 µM (MST1(h)): 33%
- inhibition at 1 µM (MLK1(h)): 79%
- inhibition at 1 µM (TAO2(h)): 46%
- inhibition at 1 µM (LKB1(h)): 15%
- inhibition at 1 µM (Plk3(h)): -6%
- inhibition at 1 µM (Hck(h)): 21%
- inhibition at 1 µM (eEF-2K(h)): 0%
- inhibition at 1 µM (EphA5(h)): 19%
- inhibition at 1 µM (NLK(h)): 51%
- inhibition at 1 µM (STK33(h)): 38%
- inhibition at 1 µM (Fyn(h)): 64%
- inhibition at 1 µM (SGK3(h)): -8%
- inhibition at 1 µM (MSSK1(h)): 12%
- inhibition at 1 µM (SRPK1(h)): 5%
- inhibition at 1 µM (MAPKAP-K3(h)): 12%
- inhibition at 1 µM (PASK(h)): 65%
- inhibition at 1 µM (FGFR2(h)): 79%
- inhibition at 1 µM (ASK1(h)): 18%
- inhibition at 1 µM (LOK(h)): 67%
- inhibition at 1 µM (RIPK2(h)): 54%
- inhibition at 1 µM (SIK(h)): 56%
- inhibition at 1 µM (Ron(h)): 53%
- inhibition at 1 µM (IRR(h)): 26%
- inhibition at 1 µM (MELK(h)): 41%
- inhibition at 1 µM (ALK4(h)): 25%
- inhibition at 1 µM (FGFR4(h)): 8%
- inhibition at 1 µM (PKBβ(h)): 3%
- inhibition at 1 µM (Pim-2(h)): 25%

Structure (SMILES): Nc1n[nH]c2ccc(-c3ccnc4[nH]c(-c5cccc(OCc6ccccc6)c5)cc34)cc12 [Compound 5r [SU1261]]
- inhibition at 1 µM (NEK7(h)): -2%
- inhibition at 1 µM (BrSK1(h)): -5%
- inhibition at 1 µM (Snk(h)): -2%
- inhibition at 1 µM (NEK6(h)): 3%
- inhibition at 1 µM (DAPK2(h)): 13%
- inhibition at 1 µM (PKCδ(h)): 6%
- inhibition at 1 µM (VRK2(h)): -11%
- inhibition at 1 µM (Lck(h) activated): 23%
- inhibition at 1 µM (Hck(h) activated): 22%
- inhibition at 1 µM (PKCζ(h)): 4%
- inhibition at 1 µM (PDGFRα(h)): -12%
- inhibition at 1 µM (EphB1(h)): 14%
- inhibition at 1 µM (PKG1α(h)): 30%
- inhibition at 1 µM (EphA3(h)): 0%
- inhibition at 1 µM (MST1(h)): 4%
- inhibition at 1 µM (MLK1(h)): 56%
- inhibition at 1 µM (TAO2(h)): 7%
- inhibition at 1 µM (LKB1(h)): 17%
- inhibition at 1 µM (Plk3(h)): -7%
- inhibition at 1 µM (Hck(h)): 16%
- inhibition at 1 µM (eEF-2K(h)): -7%
- inhibition at 1 µM (EphA5(h)): 8%
- inhibition at 1 µM (NLK(h)): 1%
- inhibition at 1 µM (STK33(h)): 25%
- inhibition at 1 µM (Fyn(h)): 33%
- inhibition at 1 µM (SGK3(h)): -27%
- inhibition at 1 µM (MSSK1(h)): 13%
- inhibition at 1 µM (SRPK1(h)): 7%
- inhibition at 1 µM (MAPKAP-K3(h)): -1%
- inhibition at 1 µM (PASK(h)): 16%
- inhibition at 1 µM (FGFR2(h)): 39%
- inhibition at 1 µM (ASK1(h)): 23%
- inhibition at 1 µM (LOK(h)): 51%
- inhibition at 1 µM (RIPK2(h)): 19%
- inhibition at 1 µM (SIK(h)): 8%
- inhibition at 1 µM (Ron(h)): 7%
- inhibition at 1 µM (IRR(h)): 1%
- inhibition at 1 µM (MELK(h)): 13%
- inhibition at 1 µM (ALK4(h)): 8%
- inhibition at 1 µM (FGFR4(h)): 6%
- inhibition at 1 µM (PKBβ(h)): -5%
- inhibition at 1 µM (Pim-2(h)): 5%
